Results: ChEMBL document CHEMBL1133391, “Synthesis and antibacterial activity of 2alpha-functionalized 1beta-methylcarbapenems related to KR-21012” (Bioorg Med Chem Lett, 2000)
Converted amounts (≈) assume the structure as drawn.

Tests used:
[1] = Tmax at a single subcutaneous administration of 40 mg/kg in mice; type: ADME, organism-based; parameters: dose 40 mg/kg, route subcutaneous; settings: mouse, in vivo, sc
[2] = Urinary recovery by disk method using Streptococcus pyogenes (0-24 h); type: ADME, organism-based; settings: mouse, urine; read-out: UR
[3] = Half-life at a single subcutaneous administration of 40 mg/kg in mice; type: ADME, organism-based; parameters: dose 40 mg/kg, route subcutaneous; settings: mouse, in vivo, sc
Mus musculus [4] = test: Area under the curve was determined for the compound at a single subcutaneous administration of 40 mg/kg in mice; type: ADME, organism-based; parameters: dose 40 mg/kg, route subcutaneous; unit not given here; settings: in vivo, sc
[5] = Peak concentration at a single subcutaneous administration of 40 mg/kg in mice; type: ADME, organism-based; parameters: dose 40 mg/kg, route subcutaneous; settings: mouse, in vivo, sc
[6] = target: T1, Dipeptidase 1 (Sus scrofa) (UniProt P22412); test: Compound was evaluated for DHP-1 stability by using purified porcine renal enzyme; type: functional
T1 sequence (whole entry): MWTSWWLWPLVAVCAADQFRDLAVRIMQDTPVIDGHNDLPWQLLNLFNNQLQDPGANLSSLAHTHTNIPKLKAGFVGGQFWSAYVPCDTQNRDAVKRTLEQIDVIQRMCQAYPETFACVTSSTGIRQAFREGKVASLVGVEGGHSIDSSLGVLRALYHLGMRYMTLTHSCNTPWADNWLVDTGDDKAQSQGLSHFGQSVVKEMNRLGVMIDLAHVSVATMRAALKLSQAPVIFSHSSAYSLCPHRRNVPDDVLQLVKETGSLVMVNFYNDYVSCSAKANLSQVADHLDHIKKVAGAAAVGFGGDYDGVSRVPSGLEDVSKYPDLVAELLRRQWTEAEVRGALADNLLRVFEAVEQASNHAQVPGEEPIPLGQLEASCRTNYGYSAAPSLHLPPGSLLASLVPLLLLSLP

Enterobacter cloacae = test: Compound was evaluated for in vitro antibacterial activity against Enterobacter cloacae P99 strain by agar dilution method; type: functional
Escherichia coli [7] = test: Compound was evaluated for in vitro antibacterial activity against Escherichia coli 078 strain by agar dilution method; type: functional
Escherichia coli [8] = test: Compound was evaluated for in vitro antibacterial activity against Escherichia coli 1507 E strain by agar dilution method; type: functional
Klebsiella oxytoca = test: Compound was evaluated for in vitro antibacterial activity against Klebsiella oxytoca 1082 E strain by agar dilution method; type: functional
Klebsiella aerogenes = test: Compound was evaluated for in vitro antibacterial activity against Klebsiella aerogenes 1522 E strain by agar dilution method; type: functional
Mus musculus [9] = test: In vivo protective activity administered sc 1 hr after ip Enterobacter cloacae P strain infection in mice; type: functional; settings: read-out: PD50
Mus musculus [10] = test: In vivo protective activity administered sc 1 hr after ip Escherichia coli 078 strain infection in mice; type: functional; settings: read-out: PD50
Mus musculus [11] = test: In vivo protective activity administered sc 1 hr after ip Streptococcus pyogenes 77A strain infection in mice; type: functional; settings: read-out: PD50
Pseudomonas aeruginosa [12] = test: Compound was evaluated for in vitro antibacterial activity against Pseudomonas aeruginosa 1771 strain by agar dilution method; type: functional
Salmonella typhimurium = test: Compound was evaluated for in vitro antibacterial activity against Salmonella Typhimurium by agar dilution method; type: functional, Salmonella enterica subsp. enterica serovar Typhimurium; settings: Salmonella enterica
Streptococcus pyogenes = test: Compound was evaluated for in vitro antibacterial activity against Streptococcus pyogenes 77A strain by agar dilution method; type: functional
Staphylococcus aureus [13] = test: Compound was evaluated for in vitro antibacterial activity against Staphylococcus aureus SG511 strain by agar dilution method; type: functional
Enterococcus faecium = test: Compound was evaluated for in vitro antibacterial activity against Streptococcus faecium MD strain by agar dilution method; type: functional
Pseudomonas aeruginosa [14] = test: Compound was evaluated for in vitro antibacterial activity against Pseudomonas aeruginosa 1771 M strain by agar dilution method; type: functional
Staphylococcus aureus [15] = test: Compound was evaluated for in vitro antibacterial activity against Staphylococcus aureus 285 strain by agar dilution method; type: functional
[16] = target: T1, Dipeptidase 1 (Sus scrofa); test: Compound was evaluated for DHP-1 stability by using purified porcine renal enzyme which is represented as the relative rate of hydrolysis compared to imipenem (rate=100); type: functional

Compound	Tmax [1]	half-life [3]	Cmax [5]	MIC (Enterobacter cloacae)	MIC (Escherichia coli [7])	MIC (Escherichia coli [8])	MIC (Klebsiella oxytoca)	MIC (Klebsiella aerogenes)	ED50 (Mus musculus [10])	ED50 (Mus musculus [11])	MIC (Pseudomonas aeruginosa [12])	MIC (Salmonella typhimurium)	MIC (Streptococcus pyogenes)	MIC (Staphylococcus aureus [13])	MIC (Enterococcus faecium)	MIC (Pseudomonas aeruginosa [14])	MIC (Staphylococcus aureus [15])	also measured
CO[C@H]1CCC[C@H]2C1=C(C(=O)[O-])N1C(=O)[C@H]([C@@H](C)O)[C@@H]21.[Na+] [SANFETRINEM SODIUM]	22.2 min	33 min	28800 ng/mL	3.12 µg/mL	0.049 µg/mL	0.195 µg/mL	1.56 µg/mL	0.391 µg/mL	3.13 mg/kg	1.46 mg/kg	25 µg/mL	0.195 µg/mL	0.007 µg/mL	0.098 µg/mL	1.56 µg/mL	0.391 µg/mL	0.049 µg/mL	dose excreted [2]: 20.5%; AUC (Mus musculus [4]): 27.39; Activity [6]: 20; ED50 (Mus musculus [9]): 1.18 mg/kg
C[C@@H](O)[C@H]1C(=O)N2C(C(=O)O)=C(S[C@@H]3CN[C@H](C(=O)N(C)C)C3)[C@H](C)[C@H]12 [MEROPENEM]	12.6 min	14.4 min	7600 ng/mL	0.025 µg/mL (≈ 0.0652 µM)	0.013 µg/mL (≈ 0.0339 µM)	0.025 µg/mL (≈ 0.0652 µM)	0.049 µg/mL (≈ 0.128 µM)	0.049 µg/mL (≈ 0.128 µM)	1.24 mg/kg	4.6 mg/kg	0.361 µg/mL (≈ 0.941 µM)	0.049 µg/mL (≈ 0.128 µM)	0.013 µg/mL (≈ 0.0339 µM)	0.013 µg/mL (≈ 0.0339 µM)	6.25 µg/mL (≈ 16.3 µM)	0.049 µg/mL (≈ 0.128 µM)	0.195 µg/mL (≈ 0.509 µM)	Activity [6]: 32
C[C@H]1C([C@H](O)C(C)(C)C)=C(C(=O)[O-])N2C(=O)[C@H]([C@@H](C)O)C12.[Na+] (stereo not given in full)				6.25 µg/mL	0.781 µg/mL	0.781 µg/mL	12.5 µg/mL	6.25 µg/mL			100 µg/mL	1.56 µg/mL	0.049 µg/mL	0.391 µg/mL	12.5 µg/mL	6.25 µg/mL	0.391 µg/mL	
CC[C@@H](O)C1=C(C(=O)[O-])N2C(=O)[C@H]([C@@H](C)O)C2[C@H]1C.[Na+] (stereo not given in full)				0.781 µg/mL	0.098 µg/mL	0.098 µg/mL	3.12 µg/mL	0.391 µg/mL			100 µg/mL	0.391 µg/mL	0.625 µg/mL	0.098 µg/mL	3.12 µg/mL	1.56 µg/mL	0.098 µg/mL	
C[C@H]1C([C@@H](O)C2CC2)=C(C(=O)[O-])N2C(=O)[C@H]([C@@H](C)O)C12.[Na+] (stereo not given in full)				0.781 µg/mL	1.56 µg/mL	0.195 µg/mL	6.25 µg/mL	0.781 µg/mL			100 µg/mL	1.56 µg/mL	0.098 µg/mL	0.195 µg/mL	3.12 µg/mL	3.12 µg/mL	0.781 µg/mL	
CC[C@H](O)C1=C(C(=O)[O-])N2C(=O)[C@H]([C@@H](C)O)C2[C@H]1C.[Na+] (stereo not given in full)				0.781 µg/mL	0.391 µg/mL	0.391 µg/mL	12.5 µg/mL	0.781 µg/mL			100 µg/mL	0.781 µg/mL	0.049 µg/mL	0.391 µg/mL	12.5 µg/mL	6.25 µg/mL	0.391 µg/mL	
C[C@H]1C([C@H](O)C2CC2)=C(C(=O)[O-])N2C(=O)[C@H]([C@@H](C)O)C12.[Na+] (stereo not given in full)	10.2 min	18.6 min	18100 ng/mL	0.781 µg/mL	0.098 µg/mL	0.049 µg/mL	0.781 µg/mL	0.195 µg/mL	23.1 mg/kg	7.94 mg/kg	100 µg/mL	0.098 µg/mL	0.007 µg/mL	0.049 µg/mL	0.781 µg/mL	1.56 µg/mL	0.049 µg/mL	dose excreted [2]: 14.3%; AUC (Mus musculus [4]): 6.86; Activity [16]: 38; ED50 (Mus musculus [9]): 12.6 mg/kg
CC(C)[C@@H](O)C1=C(C(=O)[O-])N2C(=O)[C@H]([C@@H](C)O)C2[C@H]1C.[Na+] (stereo not given in full)	15 min	41.4 min	25000 ng/mL	1.56 µg/mL	0.049 µg/mL	0.049 µg/mL	1.56 µg/mL	0.391 µg/mL	1.3 mg/kg	1.19 mg/kg	100 µg/mL	0.098 µg/mL	0.007 µg/mL	0.098 µg/mL	1.56 µg/mL	0.781 µg/mL	0.098 µg/mL	dose excreted [2]: 25.1%; AUC (Mus musculus [4]): 20.9; Activity [6]: 21; ED50 (Mus musculus [9]): 1.37 mg/kg
C[C@H]1C([C@H](O)C2CCCC2)=C(C(=O)[O-])N2C(=O)[C@H]([C@@H](C)O)C12.[Na+] (stereo not given in full)				6.25 µg/mL	0.195 µg/mL	0.195 µg/mL	3.12 µg/mL	1.56 µg/mL			100 µg/mL	0.195 µg/mL	0.013 µg/mL	0.098 µg/mL	0.781 µg/mL	0.781 µg/mL	0.098 µg/mL	
CC(C)[C@H](O)C1=C(C(=O)[O-])N2C(=O)[C@H]([C@@H](C)O)C2[C@H]1C.[Na+] (stereo not given in full)				12.5 µg/mL	1.56 µg/mL	0.391 µg/mL	25 µg/mL	12.5 µg/mL			100 µg/mL	0.781 µg/mL	0.025 µg/mL	0.781 µg/mL	12.5 µg/mL	1.56 µg/mL	0.781 µg/mL	
CCC(C)[C@@H](O)C1=C(C(=O)[O-])N2C(=O)[C@H]([C@@H](C)O)C2[C@H]1C.[Na+] (stereo not given in full)				3.12 µg/mL	0.195 µg/mL	0.195 µg/mL	3.12 µg/mL	3.12 µg/mL			100 µg/mL	0.195 µg/mL	0.013 µg/mL	0.098 µg/mL	1.56 µg/mL	1.56 µg/mL	0.098 µg/mL	
